Tests used:
[1] = tested on: HeLa cells; assay: MTT cell growth assay, HeLa cells; format: cell-based, human; details: 15 uM on day 1, half the initial dose on days 2-4; 3′-propylamino oligonucleotides; vs water control; FIG. 1C
Protocol: (§1) Cells were plated at low density ([…] cells per well, depending on cell line) in the appropriate serum-supplemented medium in 96-well plates (one plate per MTT assay time point) and grown under standard conditions of cell culture. The following day (day 1) oligonucleotide, or water as control, was added to the culture medium to give a final concentration of 15 uM. Further oligonucleotide, equivalent to half the initial dose, was added to the culture medium on days two, three and four.
(§2) Cells were assayed using the MTT assay (Morgan (1998) Methods. Mol. Biol. 79, 179-183) on days one, three, five, seven and nine after plating. The culture medium was not changed throughout the duration of the experiment (which was the time required for untreated cells to grow to confluence). Experiments were performed in triplicate and bars represent the standard error of the data.

[2] = biological target: T1, GRO-binding protein/nucleolin (HeLa nuclear extracts) (Homo sapiens, UniProt P19338); assay: UV cross-linking of oligonucleotides to HeLa nuclear extracts; details: labeled oligonucleotide with HeLa nuclear extracts; FIG. 6C
T1 construct: HeLa nuclear extracts used in EMSAs were purchased from Promega Inc. (bandshift grade); host or cells: HeLa nuclear extract (bandshift grade), purchased
T1 sequence (P19338 whole entry): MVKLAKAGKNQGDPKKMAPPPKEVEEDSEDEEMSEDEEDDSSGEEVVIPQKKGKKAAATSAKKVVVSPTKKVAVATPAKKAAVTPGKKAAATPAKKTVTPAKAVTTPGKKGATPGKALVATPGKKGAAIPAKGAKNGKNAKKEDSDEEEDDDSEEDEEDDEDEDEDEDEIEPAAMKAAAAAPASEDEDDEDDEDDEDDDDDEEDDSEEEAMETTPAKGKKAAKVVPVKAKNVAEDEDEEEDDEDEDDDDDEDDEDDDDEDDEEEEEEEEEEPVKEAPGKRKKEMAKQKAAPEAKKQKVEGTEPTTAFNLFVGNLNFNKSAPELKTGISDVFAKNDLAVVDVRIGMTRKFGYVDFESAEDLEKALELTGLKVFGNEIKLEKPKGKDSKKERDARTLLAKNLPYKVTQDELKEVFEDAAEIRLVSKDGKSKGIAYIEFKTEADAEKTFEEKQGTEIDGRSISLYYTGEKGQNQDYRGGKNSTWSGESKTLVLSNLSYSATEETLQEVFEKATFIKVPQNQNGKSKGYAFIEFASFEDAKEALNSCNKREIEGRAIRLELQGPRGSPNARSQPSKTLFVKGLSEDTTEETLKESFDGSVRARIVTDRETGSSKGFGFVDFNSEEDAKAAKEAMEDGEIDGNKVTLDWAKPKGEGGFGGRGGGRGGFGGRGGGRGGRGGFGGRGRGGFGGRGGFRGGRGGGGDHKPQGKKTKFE
Protocol: For the UV crosslinking experiments, samples were incubated as described above (EMSA). They were then placed on ice and irradiated at 5 cm from the source using the “autocross link” function of a Stratagene UV Stratalinker. Following irradiation, samples were electrophoresed under denaturing conditions on a 8% polyacrylamide-SDS gel using a standard Tris glycine buffer and visualized by autoradiography.
To determine the approximate molecular weight of the protein involved in complex A, and to confirm that competition for this complex results from direct binding of the protein to oligonucleotides, a UV cross-linking study was conducted. 5′-Labeled oligonucleotides and HeLa nuclear extracts were incubated alone or in the presence of unlabeled competitor oligonucleotides.
The samples were then irradiated with UV light resulting in cross-link formation between protein residues and thymidines in the oligonucleotide. The protein was thus radiolabeled and could be detected on a SDS-polyacrylamide gel.

[3] = Detection of G-quartets by UV thermal denaturation/renaturation; format: physicochemical; details: absorbance at 295 nm; FIG. 4
Protocol: Oligonucleotides were resuspended in Tm buffer (20 mM Tris HCl, pH 8.0, 140 mM KCl, 2.5 mM MgCl2) at a concentration such that A260=0.6 (molar concentrations ranged from […]). Samples were annealed by boiling for five minutes and allowing to cool slowly to room temperature and overnight incubation at 4° C. Thermal denaturation/renaturation experiments were carried out using an Amersham Pharmacia Biotech Ultrospec 2000 instrument equipped with a Peltier effect heated cuvette holder and temperature controller (Amersham Pharmacia Biotech). Absorbance at 295 nm was monitored over a temperature range of 25-95 or 20-90° C. at a heating/cooling rate of 0.5° C./min. To investigate the formation of G-quartet structures by the G-rich oligonucleotides, a U.V. melting technique described by […] et al. (1998) FEBS Lett. 435, 74-78 was used. This method relies on the fact that dissociation of G-quartets leads to a decrease in absorbance at 295 nm and is reported to give a more reliable indication of intramolecular G-quartet formation than measurement at 260 nm.

[4] = tested on: HS27 cells; assay: MTT cell growth assay, non-malignant HS27 cells; format: cell-based; details: compared to most malignant cell lines; FIG. 2
Protocol: as §1, §2

[5] = tested on: U937 cells; assay: MTT dose dependence, leukemic cell line U937; format: cell-based; details: FIG. 3
Text: (§3) FIG. 3: MTT assays showing the dose dependence of growth modulation by GR029A for leukemic cell lines, U937 and […], and a non-malignant mouse hematopoietic stem cell line (ATCC 2037).

[6] = tested on: K562 cells; assay: MTT dose dependence, leukemic cell line K562; format: cell-based; details: FIG. 3
Text: as §3

[7] = tested on: hematopoietic stem cell line (ATCC 2037); assay: MTT dose dependence, non-malignant hematopoietic stem cell line; format: cell-based, mouse; details: FIG. 3
Text: as §3

[8] = tested on: MDA-MB-231 breast cancer cells; assay: Chemotherapeutic agent and GRO combination, MTT assay; format: cell-based, human; details: cisplatin 0.5 µg/ml, GR029A 8 uM added after two hours, MTT after six days
Protocol: Cisplatin (in 1% DMSO solution to give a final concentration of […]) was added to the medium of MDA-MB-231 breast cancer cells growing in culture. After two hours, GR029A (in PBS solution to give a final concentration of 8 uM) was added to the medium. After six days, the relative number of viable cells was determined using the MTT assay. Cells treated with GR029A alone received an appropriate volume of 1% DMSO in place of cisplatin. Cells treated with cisplatin alone received an appropriate volume of PBS in place of GR029A.

[9] = biological target: T2, TEL-binding protein (GRO-binding protein/nucleolin, MDA-MB-231 nuclear extracts) (Homo sapiens, UniProt P19338); assay: Competitive EMSA, labeled TEL and MDA-MB-231 nuclear extracts; details: 10 nM unlabeled oligonucleotide; labeled TEL, MDA-MB-231 nuclear extracts
T2 construct: Nuclear and cytoplasmic extracts from MDA-MB-231 cells were prepared using the protocol described in F. M. Ausubel et al; endogenous in cells; host or cells: MDA-MB-231 nuclear extract, prepared in house
T2 sequence (P19338 whole entry): as above

Substance	growth of HeLa cells (MTT) [1]	UV cross-linked protein complex (approximately 100 kDa) [2]	G-quartet formation (UV annealing curve) [3]	growth modulatory effect on non-malignant HS27 cells [4]	antiproliferative effect, U937 leukemia cells [5]	antiproliferative effect, K562 leukemia cells [6]	growth modulatory effect, non-malignant hematopoietic stem cell line (ATCC 2037) [7]	growth modulation [8] [%]	competition for protein binding in competitive EMSA [9]
5′-GTTGTTTGG GGTGGT-3′ (GTTGTTTGGGGTGGT; DNA, backbone not given here; further chemistry not fully specified) [GRO15A]	modulated proliferation	crosslinked to a protein	suggestive of G-quartet formation	–	–	–	–	–	–
5′-TTTGGTGGTGGTGG TTGTGGTGGTGGTGG-3′ [GR029A]	modulated proliferation	formed this approximately 100 kDa complex	clearly indicating the presence of G-quartets	lesser growth modulatory effect	antiproliferative effects	antiproliferative effects	lesser growth modulatory effect	5	competed strongly
